Results on ten molecules are retold here after PMC12125979, “Complete xylan utilization pathway and regulation mechanisms involved in marine algae degradation by cosmopolitan marine and human gut microbiota” (The ISME Journal, 2025).

In data set [1] the target is T1, XylC.
T1 construct: construct borders only in supplement
As to the kind of experiment: isothermal titration calorimetry. The class given is binding, Vibrio sp. EA2. The following applies: 10 mM Tris-HCl pH 8.0, 100 mM NaCl, 25°C. Background: Isothermal titration calorimetry measures the heat released or taken up as one component is titrated into another.

Data set [2] has as its target XylRA. Description: isothermal titration calorimetry. The following applies: 10 mM Tris-HCl pH 8.0, 100 mM NaCl, 25°C; effector.
For data set [3], the target named is T2, BxlE (Streptomyces thermoviolaceus, UniProt Q76BU9).
T2 construct: gene bxlD
T2 sequence (Q76BU9 1-436): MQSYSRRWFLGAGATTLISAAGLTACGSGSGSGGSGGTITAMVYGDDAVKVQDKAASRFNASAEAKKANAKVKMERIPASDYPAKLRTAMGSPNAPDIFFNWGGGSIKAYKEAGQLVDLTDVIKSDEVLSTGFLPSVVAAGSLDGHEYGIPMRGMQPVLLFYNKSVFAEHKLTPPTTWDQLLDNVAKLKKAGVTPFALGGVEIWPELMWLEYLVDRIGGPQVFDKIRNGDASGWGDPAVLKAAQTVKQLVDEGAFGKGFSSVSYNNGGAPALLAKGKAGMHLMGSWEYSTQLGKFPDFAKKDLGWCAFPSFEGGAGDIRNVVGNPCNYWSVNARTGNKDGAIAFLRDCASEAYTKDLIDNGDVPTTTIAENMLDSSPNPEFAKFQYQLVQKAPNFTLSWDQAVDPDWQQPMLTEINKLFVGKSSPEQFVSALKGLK
Description: biochemical. More on the design: isothermal titration calorimetry binding of xylooligosaccharides to recombinant substrate-binding proteins.

Data set [4] addresses XylRA (Vibrio sp. EA2, UniProt A0A090T8X9 1-401). As to the kind of experiment: EMSA; xylose; EMSA: 25 ng biotin-labelled probe, 0.1-0.5 nmol XylRA in 20 uL EMSA/Gel-shift binding buffer (Beyotime), xylose present, room temperature; salt and pH not stated. The following applies: protein: recombinant; tags: C-terminal His (pET-22b); chain copies: 2; label: 5'-biotin on strand 1; blunt. In general terms: In EMSA bound probe runs differently from free probe, usually more slowly.

`OC1OC[C@@H](O)[C@H](O[C@@H]2OC[C@@H](O)[C@H](O[C@@H]3OC[C@@H](O)[C@H](O[C@@H]4OC[C@@H](O)[C@H](O)[C@H]4O)[C@H]3O)[C@H]2O)[C@H]1O` (stereo partly drawn) [β-1,3X4, β-1,3-xylotetraose] registered a Kd in data set [1] of 1000 nM.
Regarding `OC1OC[C@@H](O)[C@H](O)[C@H]1O` (stereo partly shown) [X, xylose], the affinity in data set [2], expressed as Kd, was 5100 nM.
On to `OC1OC[C@@H](O[C@@H]2OC[C@@H](O)[C@H](O)[C@H]2O)[C@H](O)[C@H]1O` (stereo partly drawn) [β-1,4X2], for which the Kd in data set [3] is 15.1 ± 4.04 nM.
The same measure, in the same setting: the value for `OC1OC[C@@H](O[C@@H]2OC[C@@H](O[C@@H]3OC[C@@H](O)[C@H](O)[C@H]3O)[C@H](O)[C@H]2O)[C@H](O)[C@H]1O` (stereo partly drawn) [β-1,4X3] was 6.28 ± 1.93 nM.
In the case of `OC1OC[C@@H](O[C@@H]2OC[C@@H](O[C@@H]3OC[C@@H](O[C@@H]4OC[C@@H](O)[C@H](O)[C@H]4O)[C@H](O)[C@H]3O)[C@H](O)[C@H]2O)[C@H](O)[C@H]1O` (stereo partly drawn) [β-1,4X4], in data set [3], the Kd is 13.2 ± 1.93 nM.

B1: PxylC (dsDNA)
DNA 1: GGAAATAAATAGAATAAATGTGGTGAGAGATATAATAATACTTGCCATAG
DNA 2: CTATGGCAAGTATTATTATATCTCTCACCACATTTATTCTATTTATTTCC
Take B1: the binding result in data set [4] was “binds”.

B2: PxylT (dsDNA)
DNA 1: ACATTTAGCAAATAGGTGAAATTTGGTATCAAAAATCATAATTGATGGCG
DNA 2: CGCCATCAATTATGATTTTTGATACCAAATTTCACCTATTTGCTAAATGT
Regarding B2, the binding result in data set [4] is reported as “binds”.

B3: PxylT-m2 (dsDNA)
DNA 1: ACATTTAGCGCATAGGTGAAATTTGGTATCGCAAATCATAATTGATGGCG
DNA 2: CGCCATCAATTATGATTTGCGATACCAAATTTCACCTATGCGCTAAATGT
For B3, the binding result in data set [4] is reported as “no binding”.

B4: PxylB (dsDNA)
DNA 1: CAATTATGTTTTTTTACAGGTGAATTCACGGATTTCACGAGTGAGTCTGA
DNA 2: TCAGACTCACTCGTGAAATCCGTGAATTCACCTGTAAAAAAACATAATTG
On to B4, for which the binding result in data set [4] is recorded as “binds”.

B5: Pxyn26B (dsDNA)
DNA 1: ACACAAAAAAAATATAAAAATATAATCAGAAAAAATCATAATTGATATTG
DNA 2: CAATATCAATTATGATTTTTTCTGATTATATTTTTATATTTTTTTTGTGT
For B5, the binding result in data set [4] was “binds”.

By Kd is commonly meant the concentration at which binding is half-saturated.
